Reference: the supplement of paper PMC10307832

What was measured:
Experiment in all cases: relative viability (nuclei count vs DMSO), 5 days (fraction); higher = more cells survive
Selisistat + Trametinib = compound: C1CC(C2=C(C1)C3=C(N2)C=CC(=C3)Cl)C(=O)N [Selisistat] + CC(=O)Nc1cccc(-n2c(=O)n(C3CC3)c(=O)c3c(Nc4ccc(I)cc4F)n(C)c(=O)c(C)c32)c1 [Trametinib] (partner 0.02 µM)
Summary of the method: (§1)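 Medians of duplicate plates are given as relative viability. That measure is the nuclei count in treated wells divided by the count in vehicle wells. Counts were taken on 4× images of lung cancer cell lines in 1536-well plates, 5 days after pin-tool dosing the day after seeding with one drug alone or a fixed anchor-drug dose plus five library-drug doses (not always all listed) in √10 steps.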

Selisistat + Alpelisib = compound: C1CC(C2=C(C1)C3=C(N2)C=CC(=C3)Cl)C(=O)N [Selisistat] + Cc1nc(NC(=O)N2CCC[C@H]2C(N)=O)sc1-c1ccnc(C(C)(C)C(F)(F)F)c1 [Alpelisib] (partner 2 µM)
Summary of the method: as §1

Selisistat + Phenformin = compound: C1CC(C2=C(C1)C3=C(N2)C=CC(=C3)Cl)C(=O)N [Selisistat] + N=C(N)NC(=N)NCCc1ccccc1 [Phenformin] (partner 250 µM)
Summary of the method: as §1

Serdemetan + Vorinostat = compound: c1ccc2c(CCNc3ccc(Nc4ccncc4)cc3)c[nH]c2c1 [Serdemetan] + O=C(CCCCCCC(=O)Nc1ccccc1)NO [Vorinostat] (partner 1 µM)
Summary of the method: as §1

| Cell Line | relative viability (Selisistat + Trametinib; first compound 0.4 µM) | relative viability (Selisistat + Trametinib; first compound 1.265 µM) | relative viability (Selisistat + Trametinib; first compound 4 µM) | relative viability (Selisistat + Trametinib; first compound 12.65 µM) | relative viability (Selisistat + Trametinib; first compound 40 µM) | relative viability (Selisistat + Alpelisib; first compound 0.4 µM) | relative viability (Selisistat + Alpelisib; first compound 1.265 µM) | relative viability (Selisistat + Alpelisib; first compound 4 µM) | relative viability (Selisistat + Alpelisib; first compound 12.65 µM) | relative viability (Selisistat + Alpelisib; first compound 40 µM) | relative viability (Selisistat + Phenformin; first compound 0.4 µM) | relative viability (Selisistat + Phenformin; first compound 1.265 µM) | relative viability (Selisistat + Phenformin; first compound 4 µM) | relative viability (Selisistat + Phenformin; first compound 12.65 µM) | relative viability (Selisistat + Phenformin; first compound 40 µM) | relative viability (Serdemetan + Vorinostat; first compound 0.04 µM) | relative viability (Serdemetan + Vorinostat; first compound 0.1265 µM) | relative viability (Serdemetan + Vorinostat; first compound 0.4 µM) | relative viability (Serdemetan + Vorinostat; first compound 1.265 µM) | relative viability (Serdemetan + Vorinostat; first compound 4 µM) |
| --- | --- | --- | --- | --- | --- | --- | --- | --- | --- | --- | --- | --- | --- | --- | --- | --- | --- | --- | --- | --- |
| NCI-H2126 | 0.557 | 0.57 | 0.565 | 0.555 | 0.605 | 0.812 | 0.77 | 0.758 | 0.863 | 0.81 | 0.516 | 0.489 | 0.499 | 0.537 | 0.551 | 0.806 | 0.913 | 0.628 | 0.669 | 0.659 |
| NCI-H2170 | 1.07 | 0.939 | 0.85 | 0.919 | 0.973 | 0.885 | 0.805 | 0.815 | 0.771 | 0.881 | 0.413 | 0.417 | 0.4 | 0.432 | 0.458 | 0.828 | 0.834 | 0.806 | 0.733 | 0.876 |
| NCI-H2228 | 0.666 | 0.362 | 0.564 | 0.537 | 0.372 | 0.721 | 0.687 | 0.587 | 0.691 | 0.647 | 0.301 | 0.271 | 0.205 | 0.295 | 0.307 | 0.588 | 0.542 | 0.573 | 0.244 | 0.219 |
| NCI-H2347 | 0.266 | 0.245 |  | 0.298 | 0.285 | 1.17 | 1.15 | 0.824 | 1 | 1.12 | 0.4 | 0.438 | 0.228 | 0.382 | 0.276 | 0.648 | 0.53 | 0.703 | 0.334 | 0.414 |
| NCI-H2405 | 0.676 | 0.602 |  | 0.601 | 0.682 | 0.769 |  |  | 0.834 | 0.845 | 0.401 | 0.333 | 0.222 | 0.393 | 0.397 | 0.968 | 0.973 | 0.91 | 0.788 | 0.846 |
| NCI-H3122 | 0.199 | 0.258 |  | 0.3 | 0.213 | 0.743 | 0.694 | 0.407 | 0.873 | 0.748 | 0.406 | 0.367 | 0.294 | 0.369 | 0.371 | 1.05 | 0.969 | 0.928 | 0.587 | 0.877 |
| PC-3 [JPC-3] | 0.805 | 0.664 |  | 0.74 | 0.695 | 1.08 | 0.973 | 1.05 | 1.02 | 1.05 | 0.488 | 0.481 | 0.48 | 0.487 | 0.48 | 0.877 | 0.807 | 0.671 | 0.626 | 0.835 |
| PC-14 | 0.723 | 0.655 | 0.823 | 0.825 | 0.671 | 0.918 | 0.885 | 0.994 | 0.952 | 1.1 | 0.522 | 0.415 | 0.314 | 0.488 | 0.643 | 0.718 | 0.811 |  | 0.645 | 0.266 |
| RERF-LC-KJ | 0.812 | 0.792 | 0.816 | 0.771 | 0.736 | 0.853 | 0.754 | 0.632 | 0.789 | 0.73 | 0.5 | 0.412 | 0.399 | 0.338 | 0.362 | 0.687 | 0.611 | 0.609 | 0.71 | 0.654 |
| SK-LU-1 | 0.598 | 0.503 | 0.546 | 0.51 | 0.444 | 1.02 | 1.05 | 1.33 | 1.03 | 0.846 | 0.504 | 0.528 | 0.465 | 0.542 | 0.625 | 0.746 | 0.821 | 0.746 | 0.598 | 0.451 |
| SK-MES-1 | 0.589 | 0.539 | 0.55 | 0.492 | 0.459 | 1.01 | 0.951 | 0.836 | 0.838 | 0.896 | 0.683 | 0.718 | 0.681 | 0.695 | 0.681 | 0.962 | 1.08 | 0.889 | 0.962 | 0.71 |
| SW 1573 | 0.615 | 0.505 |  | 0.563 | 0.565 | 0.703 | 0.884 | 0.716 | 0.804 | 0.864 | 0.411 | 0.314 | 0.362 | 0.445 | 0.399 | 0.662 | 0.932 | 0.974 | 0.615 | 0.208 |
